Results on 15 molecules are retold here after ChEMBL document CHEMBL6109116, “Peripherally Restricted Fused Heterocyclic Peptidomimetic Multifunctional Opioid Agonists as Novel, Potent Analgesics” (ACS Med Chem Lett, 2025).

The source made the active and inactive calls. The calls are words filed in the database; no cut-off is given here.

Data set [1] concerns the target Kappa-type opioid receptor (Cavia porcellus, UniProt P41144). Briefly: Displacement of [3H]U69593 from guinea pig KOR assessed as inhibition constant incubated for 2 hrs by Wallac Betaplate liquid scintillation counting analysis.
The next data set addresses Mu-type opioid receptor (Rattus norvegicus, UniProt P33535). Briefly: Displacement of [3H]-DAMGO from rat cortical membrane MOR assessed as inhibition constant incubated for 2 hrs by Wallac Betaplate liquid scintillation counting analysis. Format: cell membranes, Cortex.
Data set [2] addresses Delta-type opioid receptor (Rattus norvegicus, UniProt P33533). Briefly: Displacement of [3H]-DPDPE from rat cortical membrane DOR assessed as inhibition constant incubated for 2.5 hrs by Wallac Betaplate liquid scintillation counting analysis. Format: cell membranes, Cortex.
Data set [3] has as its system Mus musculus. Briefly: Antinociceptive activity in male C57BL/6J mouse preadministered with compound for 10 mins followed by acetic acid administration and measured after 15 to 30 min by Acetic acid stretching assay (AcAS). Format: functional. The following applies: time 25-40 min.
Data set [4] can be described thus: Selectivity ratio of ED50 for antinociceptive activity in male C57BL/6J mouse at 10 mg/kg, ip measured after 10 min by 55 degreeC warm-water tail-withdrawal assay to ED50 for antinociceptive activity in male C57BL/6J mouse preadministered with compound for 10 mins followed by acetic acid administration and measured after 15 to 30 min by Acetic acid stretching assay (AcAS). Format: functional.

For data set [5], the species on record is Mus musculus. Briefly: Acute antinociceptive activity in male C57BL/6J mouse measured after 30 min by 55 degreeC warm-water tail-withdrawal assay. The following applies: 0.5 h.
Data set [6] relates to Mus musculus. Briefly: Antinociceptive activity in KOR knockout male C57BL/6J mouse model at 10 nmol, ICV administered for 10 mins by 55 degreeC warm-water tail-withdrawal assay. Format: functional, organism-based.
A short description of data set [7]: Toxicity in C57BL/6J mouse assessed as increase in ambulation at 15 mg/kg, ip measured up to 120 min. Format: organism-based. The note with it: in vivo, 2 h.
Data set [8] can be described thus: Toxicity in C57BL/6J mouse assessed as respiratory depression at 15 mg/kg, ip measured after 20 mins. In kind it is organism-based. The note with it: in vivo.
Data set [9] relates to Mus musculus. Briefly: Antinociceptive activity in male C57BL/6J mouse assessed as peripheral restriction at 15 mg/kg, ip pre-treated with naloxone methiodide at 30 nmol, ICV for 30 min by 55 degreeC warm-water tail-withdrawal assay. In kind it is functional.
The nature of data set [10]: Toxicity in C57BL/6J mouse assessed as effect on locomotor activity at 15 mg/kg, ip measured up to 120 min. Format: organism-based. The following applies: in vivo, 2 h.
Data set [11] deals with Mus musculus. Briefly: Antinociceptive activity in male C57BL/6J mouse assessed as peripheral restriction at 15 mg/kg, ip by 55 degreeC warm-water tail-withdrawal assay. Format: functional.
The subject of data set [12] is Mus musculus. Briefly: Antinociceptive activity in male C57BL/6J mouse at 15 mg/kg, po by 55 degreeC warm-water tail-withdrawal assay. Format: functional, organism-based. The following applies: time <= 60.0 min.
The test system of data set [13] is Mus musculus. Briefly: Antinociceptive activity in MOR knockout male C57BL/6J mouse model at 10 nmol, ICV administered for 10 mins by 55 degreeC warm-water tail-withdrawal assay. In kind it is functional, organism-based.
The subject of data set [14] is Mus musculus. Briefly: Antinociceptive activity in male C57BL/6J mouse assessed as peripheral restriction at 15 mg/kg, ip pre-treated with naloxone methiodide at 30 mg/kg, SC for 30 min by 55 degreeC warm-water tail-withdrawal assay. In kind it is functional.
Data set [15] concerns the target Delta-type opioid receptor (Mus musculus) (UniProt P32300). Briefly: Partial agonist activity at mouse DOR extracted from CHO cell membrane assessed as stimulation of [35S]GTPgammaS binding at 1 to 10 uM incubated for 60 mins by liquid scintillation counting assay. Format: functional, cell membranes. The following applies: filed as partial agonist, dose 1-10 µM.

Data set [16] deals with Mus musculus. Briefly: Antinociceptive activity in wild type male C57BL/6J mouse model at 10 nmol, ICV preadministered with naltrindole for 20 mins followed by compound administration for 10 mins. Format: functional, organism-based.
For data set [17], the species on record is Mus musculus. Briefly: Antinociceptive activity in male C57BL/6J mouse measured after 10 min by 55 degreeC warm-water tail-withdrawal assay. In kind it is functional.
Data set [18] deals with Mu-type opioid receptor (Rattus norvegicus) (UniProt P33535). Briefly: Partial agonist activity at rat MOR extracted from CHO cell membrane assessed as stimulation of [35S]GTPgammaS binding at 1 to 10 uM incubated for 60 mins by liquid scintillation counting assay. In kind it is functional, cell membranes. The note with it: dose 1-10 µM.
Data set [19] has as its system Mus musculus. Briefly: Antinociceptive activity in male C57BL/6J mouse at 10 nmol, ICV administered for 8 hrs by 55 degreeC warm-water tail-withdrawal assay. In kind it is functional, organism-based.
Data set [20] has as its system Mus musculus. Briefly: Antinociceptive activity in male C57BL/6J mouse at 10 mg/kg, ip measured after 10 min by 55 degreeC warm-water tail-withdrawal assay. In kind it is functional, organism-based.
Data set [21] is described as follows: Toxicity in male C57BL/6J mouse assessed as lethality up to 30 mg/kg, ip measured after 10 min. In kind it is organism-based. The note with it: in vivo.
The target of data set [22] is Delta-type opioid receptor (Mus musculus) (UniProt P32300). Briefly: Agonist activity at mouse DOR extracted from CHO cell membrane assessed as stimulation of [35S]GTPgammaS binding at 1 to 10 uM incubated for 60 mins by liquid scintillation counting assay. In kind it is functional, cell membranes. The following applies: filed as agonist, dose 1-10 µM.
Data set [23] deals with Kappa-type opioid receptor (Homo sapiens) (UniProt P41145). Briefly: Partial agonist activity at human KOR extracted from CHO cell membrane assessed as stimulation of [35S]GTPgammaS binding at 1 to 10 uM incubated for 60 mins by liquid scintillation counting assay. Format: functional, cell membranes. The note with it: filed as partial agonist, dose 1-10 µM.
The target of data set [24] is Mu-type opioid receptor (Rattus norvegicus) (UniProt P33535). Briefly: Partial agonist activity at rat MOR extracted from CHO cell membrane assessed as stimulation of [35S]GTPgammaS binding at 10 uM incubated for 60 mins by liquid scintillation counting assay. In kind it is functional, cell membranes. The note with it: filed as partial agonist.

Kappa-type opioid receptor, sequence (P41144 whole entry): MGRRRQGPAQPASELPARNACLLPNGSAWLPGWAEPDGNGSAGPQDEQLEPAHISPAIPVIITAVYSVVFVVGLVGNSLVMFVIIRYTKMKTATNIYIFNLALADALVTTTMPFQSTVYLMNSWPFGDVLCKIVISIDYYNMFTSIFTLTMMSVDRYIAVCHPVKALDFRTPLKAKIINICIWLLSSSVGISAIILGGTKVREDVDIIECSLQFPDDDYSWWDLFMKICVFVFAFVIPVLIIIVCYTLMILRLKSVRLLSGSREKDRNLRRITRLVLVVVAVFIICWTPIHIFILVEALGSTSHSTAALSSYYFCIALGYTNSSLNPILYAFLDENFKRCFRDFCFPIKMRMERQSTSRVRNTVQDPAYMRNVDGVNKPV
Delta-type opioid receptor, sequence (P33533 whole entry): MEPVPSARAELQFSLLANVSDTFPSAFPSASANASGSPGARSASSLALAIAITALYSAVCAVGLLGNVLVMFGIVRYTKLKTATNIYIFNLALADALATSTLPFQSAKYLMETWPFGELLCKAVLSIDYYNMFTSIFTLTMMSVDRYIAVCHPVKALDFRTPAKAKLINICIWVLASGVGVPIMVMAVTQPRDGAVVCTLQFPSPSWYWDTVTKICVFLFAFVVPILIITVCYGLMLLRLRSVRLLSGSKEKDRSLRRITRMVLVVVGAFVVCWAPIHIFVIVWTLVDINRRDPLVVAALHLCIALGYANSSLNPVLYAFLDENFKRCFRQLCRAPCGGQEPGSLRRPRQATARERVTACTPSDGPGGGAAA
Mu-type opioid receptor, sequence (P33535 whole entry): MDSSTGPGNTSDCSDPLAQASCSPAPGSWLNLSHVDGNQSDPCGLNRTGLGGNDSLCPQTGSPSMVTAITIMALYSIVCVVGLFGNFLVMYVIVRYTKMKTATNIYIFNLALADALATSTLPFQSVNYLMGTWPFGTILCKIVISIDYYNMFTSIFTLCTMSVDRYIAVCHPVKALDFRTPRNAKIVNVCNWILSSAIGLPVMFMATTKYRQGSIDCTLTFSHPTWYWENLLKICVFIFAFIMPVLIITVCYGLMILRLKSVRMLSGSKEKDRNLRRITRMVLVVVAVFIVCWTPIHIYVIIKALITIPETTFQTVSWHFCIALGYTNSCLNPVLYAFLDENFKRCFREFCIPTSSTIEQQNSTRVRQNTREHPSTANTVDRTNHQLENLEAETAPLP
Mu-type opioid receptor (Rattus norvegicus), sequence (P33535 whole entry): as above
Delta-type opioid receptor (Mus musculus), sequence (P32300 whole entry): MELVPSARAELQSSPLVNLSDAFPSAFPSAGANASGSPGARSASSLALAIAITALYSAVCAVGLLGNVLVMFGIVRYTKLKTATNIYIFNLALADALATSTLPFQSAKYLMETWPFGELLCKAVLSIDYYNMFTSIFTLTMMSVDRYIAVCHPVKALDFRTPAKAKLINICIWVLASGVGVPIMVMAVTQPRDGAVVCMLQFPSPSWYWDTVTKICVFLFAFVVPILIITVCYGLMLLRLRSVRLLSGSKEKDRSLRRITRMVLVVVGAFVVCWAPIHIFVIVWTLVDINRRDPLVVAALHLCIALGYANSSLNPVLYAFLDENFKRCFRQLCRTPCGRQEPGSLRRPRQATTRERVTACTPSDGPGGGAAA
Kappa-type opioid receptor (Homo sapiens), sequence (P41145 whole entry): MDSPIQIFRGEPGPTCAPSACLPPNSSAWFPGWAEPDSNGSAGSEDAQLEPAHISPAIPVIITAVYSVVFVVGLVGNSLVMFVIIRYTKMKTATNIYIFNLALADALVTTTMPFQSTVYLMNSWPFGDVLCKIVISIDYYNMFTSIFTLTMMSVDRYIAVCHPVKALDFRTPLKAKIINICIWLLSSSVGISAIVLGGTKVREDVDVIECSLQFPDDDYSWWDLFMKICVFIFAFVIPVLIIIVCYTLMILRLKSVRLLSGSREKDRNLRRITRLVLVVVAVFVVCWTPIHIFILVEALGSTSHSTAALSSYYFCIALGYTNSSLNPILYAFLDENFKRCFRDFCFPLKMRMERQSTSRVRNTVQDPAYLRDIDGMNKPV

Consider `CC(C)C[C@H]1CN([C@@H](Cc2ccc(O)cc2)CN2C(=N)NC[C@@H]2CCCNC(=N)N)C(=N)N1CCNS(=O)(=O)c1ccc(C(C)(C)C)cc1`, for which the Ki in data set [1] was found to be 48 nM; at Mu-type opioid receptor, 120 nM; in data set [2], 1 nM.
For the molecule `CN1CC[C@]23c4c5ccc(O)c4O[C@H]2[C@@H](O)C=C[C@H]3[C@H]1C5` [MORPHINE], the ED50 in the data set on Mus musculus [3] amounted to 0.9 mg/kg; in the data set listed under Mus musculus [5], 3.37 mg/kg. In addition, in data set [4], the “Ratio ED50” value is given as 3.75.
Regarding `CC(C)[C@H]1CN=C2C=C3N(CCc4ccccc4)[C@@H](CCN(C)C)CN3[C@@H](Cc3ccc(O)cc3)CN21`, the Ki in [1] was 20 nM; on Mu-type opioid receptor it was 34 nM; in [2] it was 8 nM.
Take `CC(C)C[C@H]1CN2C(=CC3=NC[C@H](CCN(C)C)N3C[C@@H]2Cc2ccc(O)cc2)N1CCc1ccccc1`: the ED50 with Mus musculus [3] was found to be 0.2 mg/kg; in the data set filed under Mus musculus [17] it was 2.19 mg/kg. In [4], the “Ratio ED50” value came to 10.73. Besides, the result in the data set with Mus musculus [6], in the data set on Mus musculus [13] and with Mus musculus [16] was inactive. Also, the Ki in data set [1] is 24 nM; at Mu-type opioid receptor, 212 nM; in data set [2], 5 nM. The Activity result in data set [7] is “Non-toxic”; in data set [8], “Non-toxic”; in the data set on Mus musculus [9], 42%; in data set [10], “Non-toxic”; in the data set with Mus musculus [11], 96.3%; with Mus musculus [12] it was “Time-dependent-effect”. Besides, the Activity is 1.2% in the data set with Mus musculus [14], “Active; Weak Partial Agonism Observed” in [15], “Not active; No Significant Activity” in data set [18] and “Active; Comparable To Morphine And U50,488” in the data set on Mus musculus [19].
Turning to `CC(C)C[C@H]1CN2C(=CC3=NC[C@H](CC(C)C)N3C[C@@H]2Cc2ccc(O)cc2)N1CCN1CCOCC1`, the Ki was 15 nM in data set [1], 157 nM on Mu-type opioid receptor and 16 nM in [2].
As for `CC(C)[C@H]1CN=C2C=C3N(CCN4CCOCC4)[C@@H](Cc4ccc(O)cc4)CN3[C@@H](Cc3ccc(O)cc3)CN21`, the figures for the Ki (in data set [1]; on Mu-type opioid receptor; in [2]) were 41 nM, 51 nM and 11 nM, respectively.
`CC(C)C[C@H]1CN2C(=CC3=NC[C@H](CN(C)C)N3C[C@@H]2Cc2ccc(O)cc2)N1CCc1ccccc1`: the outcome in the data set with Mus musculus [6], in the data set with Mus musculus [13] and with Mus musculus [16] was inactive. Besides, the values for the Ki (in data set [1]; on Mu-type opioid receptor; in data set [2]) were 47 nM, 100 nM and 5 nM, respectively. Further, the Activity result was “Active; Minimal Antinociception Observed” in the data set with Mus musculus [20], “Toxic” in [21], “Not active; No Significant Activity” in [18] and “Active; Comparable To Morphine And U50,490” with Mus musculus [19]. Moreover, the outcome in [22] and in [23] was Active.
For `CC(C)(C)c1ccc(S(=O)(=O)NCCN2C(=N)N([C@@H](CCCNC(=N)N)CN3C(=N)NC[C@@H]3CCCNC(=N)N)C[C@@H]2CCCNC(=N)N)cc1`, the Ki came out at 93 nM in data set [1], 340 nM on Mu-type opioid receptor and 7 nM in data set [2].
With `CC(C)C[C@H]1CN=C2C=C3N4CCC[C@H]4CN3[C@@H](Cc3ccc(O)cc3)CN21`, the Ki in data set [1] stood at 40 nM; at Mu-type opioid receptor it was 169 nM; in data set [2], 10 nM.
For `CC(C)[C@H]1CN=C2C=C3N(CCc4ccccc4)[C@@H](CN(C)C)CN3[C@@H](Cc3ccc(O)cc3)CN21`, the Ki in data set [1] was 37 nM; at Mu-type opioid receptor, 26 nM; in [2], 4 nM.
Consider `CC(C)[C@H]1CN=C2C=C3N4C[C@H](O)C[C@H]4CN3[C@@H](Cc3ccc(O)cc3)CN21`, for which the Ki stood at 16 nM in [1], 254 nM on Mu-type opioid receptor and 34 nM in data set [2].
The corresponding values for `CC(C)(C)c1ccc(S(=O)(=O)NCCN2C(=N)N([C@@H](Cc3ccc(O)cc3)CN3C(=N)NC[C@@H]3CCCNC(=N)N)C[C@@H]2CCCNC(=N)N)cc1` are 49 nM, 458 nM and 84 nM.
For `CN1CCN(CCN2C(=N)N([C@@H](CCCNC(=N)N)CN3C(=N)NC[C@@H]3Cc3ccc(O)cc3)C[C@@H]2Cc2ccc(O)cc2)CC1`, the result in [24] and in [23] was Active. Further, the ED50 in the data set on Mus musculus [3] amounted to 4.97 mg/kg; in the data set filed under Mus musculus [17] it was 3.9 mg/kg. Also, in data set [4], the “Ratio ED50” value stood at 0.78. For the same molecule, the outcome in the data set with Mus musculus [6], with Mus musculus [13] and with Mus musculus [16] was inactive. The Ki is 87 nM in data set [1], 197 nM at Mu-type opioid receptor and 40 nM in [2]. The Activity entry is “Non-toxic” in data set [7]; “Non-toxic” in data set [8]; 10.1% in the data set with Mus musculus [9]; “Non-toxic” in data set [10]; 89.7% in the data set on Mus musculus [11]; “Time-dependent-effect” in the data set on Mus musculus [12]. Further, the Activity in the data set with Mus musculus [14] was 2.5%; in data set [15] it was “Active; Weak Partial Agonism Observed”; in the data set with Mus musculus [19], “Active; Comparable To Morphine And U50,491”.
Take `CC(C)C[C@H]1CN=C2C=C3N(CCN4CCOCC4)[C@@H](Cc4ccc(O)cc4)CN3[C@@H](Cc3ccc(O)cc3)CN21`: the inhibitory constant (Ki) in data set [1] was found to be 20 nM; on Mu-type opioid receptor, 108 nM; in data set [2] it was 42 nM.
Take `CC(C)C[C@H]1CN2C(=CC3=NC[C@@H](C(C)C)N3C[C@H]2Cc2ccc(O)cc2)N1CCc1ccccc1`: the results for the Ki in [1] and in data set [2] were 43 nM and 1 nM, respectively.
